# Experimental data: ChEMBL document CHEMBL5625250, “Discovery of novel flavonoid-based CDK9 degraders for prostate cancer treatment via a PROTAC strategy” (Eur J Med Chem, 2023)
# Activity calls are given as the source filed them. No cut-off for these calls is given here.
# Experiments:
# [1] = target: T1, Protein cereblon/Cyclin-dependent kinase 9 (Homo sapiens, UniProt P50750+Q96SW2); assay: PROTAC activity at CRBN/CDK9 in human 22Rv1 cells assessed as degradation of CDK9 protein at 100 nM by Western blotting analysis; format: cell-based; conditions: time 2-24 hrs, TDE = time-dependent effect
# Target sequence in this assay (P50750 whole entry, looked up): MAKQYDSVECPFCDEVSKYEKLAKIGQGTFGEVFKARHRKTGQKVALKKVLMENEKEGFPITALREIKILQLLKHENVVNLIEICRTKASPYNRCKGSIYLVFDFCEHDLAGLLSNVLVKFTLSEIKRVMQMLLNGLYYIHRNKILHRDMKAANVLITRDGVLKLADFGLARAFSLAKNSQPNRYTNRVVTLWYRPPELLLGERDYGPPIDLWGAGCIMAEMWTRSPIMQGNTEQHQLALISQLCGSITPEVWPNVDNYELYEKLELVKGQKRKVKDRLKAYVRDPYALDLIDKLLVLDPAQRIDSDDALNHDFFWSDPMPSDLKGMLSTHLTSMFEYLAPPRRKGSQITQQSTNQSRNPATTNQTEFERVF
# Target sequence in this assay (Q96SW2 whole entry, looked up): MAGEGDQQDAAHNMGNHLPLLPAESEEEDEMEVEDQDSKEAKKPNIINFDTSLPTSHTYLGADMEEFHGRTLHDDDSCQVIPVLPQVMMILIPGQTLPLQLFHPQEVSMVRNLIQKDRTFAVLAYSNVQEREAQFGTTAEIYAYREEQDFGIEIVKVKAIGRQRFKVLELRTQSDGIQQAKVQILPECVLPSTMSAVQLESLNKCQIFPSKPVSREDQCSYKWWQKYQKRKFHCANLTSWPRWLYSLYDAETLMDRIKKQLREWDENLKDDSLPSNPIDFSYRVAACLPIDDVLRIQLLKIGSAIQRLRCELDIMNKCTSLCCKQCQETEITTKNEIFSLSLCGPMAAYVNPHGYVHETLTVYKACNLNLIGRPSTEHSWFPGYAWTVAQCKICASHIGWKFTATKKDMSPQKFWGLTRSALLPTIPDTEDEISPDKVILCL
# [2] = target: T1, Protein cereblon/Cyclin-dependent kinase 9; assay: PROTAC activity at CRBN/CDK9 in human 22Rv1 cells assessed as reduction in Mcl-1 expression incubated for 24 hrs by Western blotting analysis; format: cell-based; conditions: dose 0.1-1.5 µM
# Target sequence in this assay (P50750 whole entry, looked up): as the sequence (P50750 whole entry, looked up) above
# Target sequence in this assay (Q96SW2 whole entry, looked up): as the sequence (Q96SW2 whole entry, looked up) above
# [3] = target: T1, Protein cereblon/Cyclin-dependent kinase 9; assay: PROTAC activity at CRBN/CDK9 in human 22Rv1 cells assessed as reduction in cyclin T1 expression at 0.1 to 1.5 uM incubated for 24 hrs by Western blotting analysis; format: cell-based; conditions: dose 0.1-1.5 µM
# Target sequence in this assay (P50750 whole entry, looked up): as the sequence (P50750 whole entry, looked up) above
# Target sequence in this assay (Q96SW2 whole entry, looked up): as the sequence (Q96SW2 whole entry, looked up) above
# [4] = Apparent volume of distribution in Sprague-Dawley rat at 2 mg/kg, iv by LC-MS/MS analysis; format: ADME, organism-based; conditions: in vivo, read-out: Vz
# [5] = target: T1, Protein cereblon/Cyclin-dependent kinase 9; assay: PROTAC activity at CRBN/CDK9 in human 22Rv1 cells assessed as degradation of CDK9 protein at 500 nM incubated for 12 hrs by Western blotting analysis; format: cell-based
# Target sequence in this assay (P50750 whole entry, looked up): as the sequence (P50750 whole entry, looked up) above
# Target sequence in this assay (Q96SW2 whole entry, looked up): as the sequence (Q96SW2 whole entry, looked up) above
# [6] = target: T1, Protein cereblon/Cyclin-dependent kinase 9; assay: PROTAC activity at CRBN/CDK9 in human 22Rv1 cells assessed as degradation of CDK9 protein at 0.1 uM incubated for 12 hrs in presence of MG132 by Western blotting analysis; format: cell-based
# Target sequence in this assay (P50750 whole entry, looked up): as the sequence (P50750 whole entry, looked up) above
# Target sequence in this assay (Q96SW2 whole entry, looked up): as the sequence (Q96SW2 whole entry, looked up) above
# CWR22R [7] = assay: In vivo degradation of ARv7 expression in human 22Rv1 cells xenografted in BALB/c mouse tumor at 20 mg/kg, iv administered for 18 days by Western blotting analysis; format: functional, organism-based; conditions: time 18.0 day
# [8] = target: Cyclin-dependent kinase 6 (Homo sapiens) (UniProt Q00534); assay: Induction of CDK6 protein degradation in human 22Rv1 cells at 500 nM incubated for 12 hrs by Western blotting analysis; format: cell-based
# Chain of Cyclin-dependent kinase 6 (Homo sapiens) (Q00534 whole entry): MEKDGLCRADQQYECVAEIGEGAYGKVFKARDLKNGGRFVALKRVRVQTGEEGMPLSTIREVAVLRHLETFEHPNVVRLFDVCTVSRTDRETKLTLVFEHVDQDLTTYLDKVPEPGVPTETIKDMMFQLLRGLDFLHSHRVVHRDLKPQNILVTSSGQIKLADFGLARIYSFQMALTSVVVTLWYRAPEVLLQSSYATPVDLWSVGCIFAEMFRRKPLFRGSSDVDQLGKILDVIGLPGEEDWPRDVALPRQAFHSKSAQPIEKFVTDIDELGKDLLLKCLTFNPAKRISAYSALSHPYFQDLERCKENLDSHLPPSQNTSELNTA
# [9] = target: T2, Cyclin-dependent kinase 9 (Homo sapiens, UniProt P50750); assay: Inhibition of CDK9 (unknown origin) in presence of ATP by ADP-Glo kinase assay
# T2 sequence (P50750 whole entry): as the sequence (P50750 whole entry, looked up) above
# CWR22R [10] = assay: In vivo degradation of Mcl-1 expression in human 22Rv1 cells xenografted in BALB/c mouse tumor at 20 mg/kg, iv administered for 18 days by Western blotting analysis; format: functional, organism-based; conditions: time 18.0 day
# [11] = target: Cyclin-dependent kinase 4 (Homo sapiens) (UniProt P11802); assay: Induction of CDK4 protein degradation in human 22Rv1 cells at 500 nM incubated for 12 hrs by Western blotting analysis; format: cell-based
# Chain of Cyclin-dependent kinase 4 (Homo sapiens) (P11802 whole entry): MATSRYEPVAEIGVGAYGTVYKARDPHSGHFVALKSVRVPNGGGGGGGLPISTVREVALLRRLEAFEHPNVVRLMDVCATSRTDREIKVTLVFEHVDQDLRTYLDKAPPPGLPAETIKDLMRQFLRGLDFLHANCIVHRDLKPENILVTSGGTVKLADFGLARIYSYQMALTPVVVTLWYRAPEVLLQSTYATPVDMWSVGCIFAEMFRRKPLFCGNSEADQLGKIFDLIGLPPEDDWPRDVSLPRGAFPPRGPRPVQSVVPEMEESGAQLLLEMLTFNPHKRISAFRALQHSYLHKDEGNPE
# [12] = Solubility of the compound in water at pH 7.4 by shake flask method; format: physicochemical
# CWR22R [13] = assay: Antitumor activity against human 22Rv1 cells xenografted in BALB/c mouse assessed as tumor growth inhibition at 20 mg/kg, iv administered for 20 days relative to control; format: functional; conditions: 22Rv1, 480 h, time 20 day, read-out: TGI
# [14] = AUC in Sprague-Dawley rat at 2 mg/kg, iv by LC-MS/MS analysis; format: ADME, organism-based; conditions: in vivo
# CWR22R [15] = assay: In vivo degradation of CDK9 protein level in human 22Rv1 cells xenografted in BALB/c mouse tumor at 20 mg/kg, iv administered for 18 days by immunohistochemistry analysis; format: functional, organism-based; conditions: time 18.0 day
# [16] = target: T1, Protein cereblon/Cyclin-dependent kinase 9; assay: PROTAC activity at CRBN/CDK9 in human 22Rv1 cells assessed as reduction in RNAPII-ser 2 phosphorylation incubated for 24 hrs by Western blotting analysis; format: cell-based; conditions: dose 0.1-1.5 µM
# Target sequence in this assay (P50750 whole entry, looked up): as the sequence (P50750 whole entry, looked up) above
# Target sequence in this assay (Q96SW2 whole entry, looked up): as the sequence (Q96SW2 whole entry, looked up) above
# CWR22R [17] = assay: In vivo degradation of CDK9 expression in human 22Rv1 cells xenografted in BALB/c mouse tumor at 20 mg/kg, iv administered for 18 days by Western blotting analysis; format: functional, organism-based; conditions: time 18.0 day
# [18] = target: Cyclin-dependent kinase 5 (Homo sapiens) (UniProt Q00535); assay: Induction of CDK5 protein degradation in human 22Rv1 cells at 500 nM incubated for 12 hrs by Western blotting analysis; format: cell-based
# Chain of Cyclin-dependent kinase 5 (Homo sapiens) (Q00535 whole entry, looked up): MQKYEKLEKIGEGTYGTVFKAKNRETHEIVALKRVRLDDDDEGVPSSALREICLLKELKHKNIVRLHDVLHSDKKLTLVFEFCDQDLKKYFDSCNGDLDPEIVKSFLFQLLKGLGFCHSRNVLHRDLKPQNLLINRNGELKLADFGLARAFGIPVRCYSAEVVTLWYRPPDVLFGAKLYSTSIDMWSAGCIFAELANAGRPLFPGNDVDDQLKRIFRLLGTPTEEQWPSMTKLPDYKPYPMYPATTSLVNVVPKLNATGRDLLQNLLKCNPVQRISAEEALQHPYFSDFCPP
# [19] = Solubility of the compound in water at pH 6.0 by shake flask method; format: physicochemical
# CWR22R [20] = assay: In vivo degradation of Ki67 protein level in human 22Rv1 cells xenografted in BALB/c mouse tumor at 20 mg/kg, iv administered for 18 days by immunohistochemistry analysis; format: functional, organism-based; conditions: time 18.0 day
# [21] = target: T1, Protein cereblon/Cyclin-dependent kinase 9; assay: PROTAC activity at CRBN/CDK9 in human 22Rv1 cells assessed as degradation of CDK9 protein at 0.1 uM incubated for 12 hrs in presence of thalidomide by Western blotting analysis; format: cell-based
# CWR22R [22] = assay: Antiproliferative activity against human 22Rv1 cells assessed as reduction in colony formation incubated for 2 weeks by crystal violet staining based assay; format: functional, cell-based; conditions: dose 7.8-62.5 nM
# [23] = target: Cyclin-dependent kinase 7 (Homo sapiens) (UniProt P50613); assay: Induction of CDK7 protein degradation in human 22Rv1 cells at 500 nM incubated for 12 hrs by Western blotting analysis; format: cell-based
# Chain of Cyclin-dependent kinase 7 (Homo sapiens) (P50613 whole entry): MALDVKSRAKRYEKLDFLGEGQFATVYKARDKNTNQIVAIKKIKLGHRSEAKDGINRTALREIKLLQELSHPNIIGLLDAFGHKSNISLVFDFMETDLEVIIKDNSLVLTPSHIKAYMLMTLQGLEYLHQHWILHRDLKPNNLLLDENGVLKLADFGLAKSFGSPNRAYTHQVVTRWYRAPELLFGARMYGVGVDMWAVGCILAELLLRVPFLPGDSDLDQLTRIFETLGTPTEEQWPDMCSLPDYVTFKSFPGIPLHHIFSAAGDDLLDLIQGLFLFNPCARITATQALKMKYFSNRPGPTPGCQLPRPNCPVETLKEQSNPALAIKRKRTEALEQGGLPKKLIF
# [24] = Toxicity in BALB/c mouse xenografted with human 22Rv1 cells assessed as mortality at 10 to 20 mg/kg, iv administered for 20 days; format: organism-based, CWR22R; conditions: in vivo, 480 h, dose 10-20 mg/kg, time 20 day
# [25] = Toxicity in BALB/c mouse xenografted with human 22Rv1 cells assessed as change in body weight at 10 mg/kg, iv administered for 20 days relative to control; format: organism-based, CWR22R; conditions: in vivo, 480 h, time 20 day
# CWR22R [26] = assay: Antiproliferative activity against human 22Rv1 cells assessed as reduction in cell viability incubated for 72 hrs by SRB assay; format: functional, cell-based; conditions: 22Rv1, 72 h
# [27] = target: T1, Protein cereblon/Cyclin-dependent kinase 9; assay: PROTAC activity at CRBN/CDK9 in human 22Rv1 cells assessed as degradation of CDK9 protein at 0.1 uM incubated for 12 hrs in presence of LWT-111 by Western blotting analysis; format: cell-based
# CWR22R [28] = assay: In vivo degradation of c-Myc expression in human 22Rv1 cells xenografted in BALB/c mouse tumor at 20 mg/kg, iv administered for 18 days by Western blotting analysis; format: functional, organism-based; conditions: time 18.0 day
# [29] = target: Cyclin-dependent kinase 2 (Homo sapiens) (UniProt P24941); assay: Induction of CDK2 protein degradation in human 22Rv1 cells at 500 nM incubated for 12 hrs by Western blotting analysis; format: cell-based
# [30] = Half life in Sprague-Dawley rat at 2 mg/kg, iv by LC-MS/MS analysis; format: ADME, organism-based; conditions: in vivo
# CWR22R [31] = assay: Antitumor activity against human 22Rv1 cells assessed as complete reduction in colony formation at 60 nM incubated for 2 weeks by crystal violet staining based assay; format: functional; set-up: scale not given: the % may be the effect or the level left
# CWR22R [32] = assay: Antitumor activity against human 22Rv1 cells assessed as complete reduction in colony formation incubated for 2 weeks by crystal violet staining based assay; format: functional, cell-based; conditions: dose 7.8-62.5 nM
# [33] = target: T1, Protein cereblon/Cyclin-dependent kinase 9; assay: PROTAC activity at CRBN/CDK9 in human 22Rv1 cells assessed as reduction in c-Myc expression incubated for 24 hrs by Western blotting analysis; format: cell-based; conditions: dose 0.1-1.5 µM
# [34] = target: T2, Cyclin-dependent kinase 9; assay: Inhibition of CDK9 (unknown origin) at 20 nM in presence of ATP by ADP-Glo kinase assay relative to control
# CWR22R [35] = assay: Antitumor activity against human 22Rv1 cells xenografted in BALB/c mouse assessed as tumor growth inhibition at 10 mg/kg, iv administered for 20 days relative to control; format: functional; conditions: 22Rv1, 480 h, time 20 day, read-out: TGI
# [36] = Toxicity in BALB/c mouse xenografted with human 22Rv1 cells assessed as change in body weight at 20 mg/kg, iv administered for 20 days relative to control; format: organism-based, CWR22R; conditions: in vivo, 480 h, time 20 day
# [37] = Metabolic stability in human liver microsome assessed as half life at 10 uM by LC-MS/MS analysis; format: ADME; conditions: liver microsomes
# [38] = target: T1, Protein cereblon/Cyclin-dependent kinase 9; assay: PROTAC activity at CRBN/CDK9 in human 22Rv1 cells assessed as degradation of CDK9 protein at 100 nM incubated for 12 hrs by Western blotting analysis relative to control; format: cell-based
# CWR22R [39] = assay: In vivo degradation of c-Myc protein level in human 22Rv1 cells xenografted in BALB/c mouse tumor at 20 mg/kg, iv administered for 18 days by immunohistochemistry analysis; format: functional, organism-based; conditions: time 18.0 day
# [40] = target: T1, Protein cereblon/Cyclin-dependent kinase 9; assay: PROTAC activity at CRBN/CDK9 in human 22Rv1 cells assessed as degradation of CDK9 protein incubated for 12 hrs by Western blotting analysis; format: cell-based
smiles,measurement,setting,value
COc1cc(O)c2c(=O)cc(-c3ccc(N4CCN(CC5CCN(c6ccc7c(c6)C(=O)N(C6CCC(=O)NC6=O)C7=O)CC5)CC4)cc3)oc2c1C1=CCN(C)CC1 (stereo unspecified),Activity,[1],Tde
same,Activity,[2],Dose-Dependent Effect
same,Activity,[3],Active
same,Vd,[4],22.6 L/kg
same,Activity,[5],100%
same,Activity,[6],inactive
same,Activity,CWR22R [7],Active
same,Activity,[8],inactive
same,IC50,[9],3.3 nM
same,Activity,CWR22R [10],Active
same,Activity,[11],inactive
same,solubility thermodynamic,[12],53 µg/mL
same,inhibition in vivo at 20 mg/kg,CWR22R [13],75.1%
same,AUC,[14],681 ng·h/mL
same,Activity,CWR22R [15],Active
same,Activity,[16],Dose-Dependent Effect
same,Activity,CWR22R [17],Active
same,Activity,[18],inactive
same,solubility thermodynamic,[19],125 µg/mL
same,Activity,CWR22R [20],Active
same,Activity,[21],inactive
same,Activity,CWR22R [22],Dose-Dependent Effect
same,Activity,[23],inactive
same,Activity,[24],Non-Toxic
same,Activity,[25],12.5%
same,IC50,CWR22R [26],60 nM
same,Activity,[27],inactive
same,Activity,CWR22R [28],Active
same,Activity,[29],inactive
same,half-life,[30],11.1 h
same,Activity,CWR22R [31],100%
same,Activity,CWR22R [32],Dose-Dependent Effect
same,Activity,[33],Dose-Dependent Effect
same,inhibition,[34],85.6%
same,inhibition in vivo at 10 mg/kg,CWR22R [35],65.7%
same,Activity,[36],15.3%
same,half-life at 10 µM,[37],1.62 h
same,Activity,[38],80%
same,Activity,CWR22R [39],Active
same,Activity,[40],Dose-Dependent Effect
same,DC50,[40],43 nM
